{
  "source": "patent US6884575B2",
  "about": "“Phosphoprotein target for insulin and its antagonists” (Protemix Corporation Limited, priority 2001, dated 2005)",
  "key": {"skeletal muscle": {"system": "skeletal muscle", "experiment": "In vitro [14C(U)]-D-glucose incorporation assay in skeletal muscle (insulin-stimulated glycogen synthesis)", "assay_type": "cell-based, rat", "settings": "muscle of dexamethasone-treated rats", "protocol": "(§1) All experimental protocols were approved by the Institutional Animal Ethics Committee. Male Wistar rats were injected with dexamethasone (3.1 mg/kg/day, intraperitoneally) for 7 days. The daily weights of rats in both control and dexamethasone-treated groups were monitored. […] Rats were fasted for 18 h prior to each experiment and were killed by cervical dislocation. Blood was obtained by cardiac puncture from anesthetized animals. The mean blood glucose concentration was 5.4±0.2 mM and 10.8±0.6 mM in control and dexamethasone-treated rats, respectively, as measured with a YSI 2300STAT glucose/lactate analyser (Yellow Springs Instruments). […] Insulin and amylin concentrations in the blood of normal and insulin resistant rats were determined as described (17). Rats with insulin resistance induced by chronic high fat feeding were generated as described previously (26)."}, "Male Wistar rats": {"system": "Male Wistar rats", "assay_type": "in vivo, rat", "protocol": "as §1"}, "P20 [1]": {"system": "P20", "experiment": "Phosphorylation of P20 isoforms in 32P-labelled rat EDL muscle strips (2-DE, phosphorimaging)", "assay_type": "cell-based", "settings": "for radioactivity of P20 isoform S1 / radioactivity of P20 isoform S2 / radioactivity of P20 isoform S3: hormones 50 nM, 30 min, n=4", "protocol": "Rat extensor digitorum longus (EDL) muscle strips were prepared from 18 h-fasted rats. Dissection and isolation of muscles were carried out under anaesthesia with pentobarbital (5-7 mg/100 g of body weight, intraperitoneally) as described previously (23). Each muscle was split into three ˜1 mm width strips. Muscle strips were pre-incubated in a shaking incubator at 30° C. for 1 h in 5 ml of Dulbecco's Modified Eagle's medium without sodium phosphate. All incubation media were gassed with a mixture of 95% O2 and 5% CO2. The muscle strips were subsequently transferred to similar flasks containing identical medium plus 0.25 mCi/ml [^32P]-orthophosphate and incubated for a further 4 h to equilibrate the internal ATP pool (23, 24). Human insulin, rat amylin, epinephrine or CGRP were then added to the incubation media for 30 min at stated final concentrations. Reactions were terminated by freezing muscle strips in liquid nitrogen immediately after incubation. Muscle strips were then weighed and stored at −80° C. until further analysis.\nMuscle strips were homogenized in 2-DE lysis buffer (9M urea, 2% v/v triton X-100, 2% v/v pharmalyte pH 3-10, 200 mM DTT, 8 mM PMSF) for 5 min on ice. The lysates were briefly sonicated and microcentrifuged at 12,000 rpm for 10 min to remove debris. Protein concentrations were determined by the Bradford method and radioactivity was measured by liquid scintillation counting. ^32P-labelled lysates with equivalent amounts of radioactivity were isoelectrically focused on IPG Drystrip pH 4-7 and pH 3-10 Linear gels using a multiphor RII electrophoresis system according to the manufacturer's instructions. Second dimensional SDS-PAGE was carried out using ExcelGel™ precast 12-14% acrylamide gradient gels. After electrophoresis the gels were fixed in 10% glacial acetic acid, 40% ethanol and the proteins visualized by phosphorimaging or autoradiography.\nAutoradiography films were scanned and digitised using a Sharp JX-325 scanner, and protein spots detected, quantitated and analysed using the Melanie II software package, ver. 2.2 (Biorad). The detection parameters were: smooth 2, Laplacian threshold 3, partials threshold 1, saturation 90, peakedness increase 100 and minimum perimeter 10. The matching of multiple features to one feature was not allowed. The pixel value is the optical density (OD). Features were calculated as a percentage of the sum of VOL (the feature's volume, i.e., the integration of OD over the feature's area) for all features on the gel. The radioactivity of protein spots was also detected by a phosphorimager and analysed by MacBAS v2.5 software. […] All the results presented are based on at least three independent experiments. Statistical analysis was performed using the t-test (paired two sample)."}, "L6 myotubes": {"system": "L6 myotubes", "experiment": "2-deoxyglucose uptake in L6 myotubes", "assay_type": "cell-based", "protocol": "L6 myoblast cells were transfected with pCXN2-GLUT4myc (27), or co-transfected with pCXN2-GLUT4myc and pcDNA.P20, using Lipofectamine Plus reagent according to the manufacturer's instructions. Stable transfectants were selected in medium containing the neomycin analogue G418 at 400 μg/ml. At 10 days after transfection, the clones were selected using sterilised steel rings and expanded separately in the presence of G418. Clones that express P20 and myc-tagged GLUT4 were chosen by western blotting and used for further experiments.\nL6 cells stably overexpressing myc-tagged GLUT4, or myc-tagged GLUT4 plus P20, were grown in 6-well plates and differentiated into myotubes in DMEM containing 2% fetal bovine serum for 7 days. The cells were deprived of serum for 16 h prior to experiments. For glucose uptake assays, L6 myotubes were rinsed three times with Krebs-Henseleit buffer (KHB) and incubated in KHB with or without hormones (insulin or insulin plus amylin) at the indicated concentrations for 15 min at 37° C. Carrier-mediated glucose uptake of 10 μM 2-deoxy-D-[^3H] glucose in the above solution was measured for 15 min at 37° C. This was followed by rinsing the cells three times with ice-cold PBS and cell disruption with 0.1 N NaOH. The associated radioactivity was determined by liquid scintillation counting. The protein concentration was measured with a BCA protein quantitation kit (PIERCE). The nonspecific uptake was determined in the presence of 10 μM cytochalasin B and subtracted from each value."}, "P20 [2]": {"system": "P20", "experiment": "P20 mRNA (northern blot) and protein (western blot) in EDL muscle", "assay_type": "cell-based, rat", "settings": "dexamethasone-injected rats or strips with 50 nM amylin 30 min", "protocol": "About 50 μg proteins from liver, heart, epididymal fat pad, aortic smooth muscle, EDL muscle, soleus muscle tissues and whole blood obtained from 18 h-fasted male Wistar rats were separated by SDS-PAGE and subsequently transferred to nitrocellulose membranes. The membranes were blocked over night at 4° C. and then incubated with rabbit anti-P20 polyclonal antibody (1:1000) for 2 h at room temperature. After incubation with streptavidin-biotinylated horseradish peroxidase-conjugated secondary antibody for another 1 h at room temperature, the proteins immunoreactive to the primary antibody were visualised by enhanced chemiluminescence (ECL) detection according to the manufacturer's instructions.\nTotal cellular RNA was isolated from EDL muscle of 18 h-fasted control and dexamethasone-treated rats using TRIZOL reagent. 15 μg of RNA from each sample was separated by 1.5% agarose-formaldehyde gel electrophoresis and subsequently transferred to Hybond-N^+ nylon membranes by capillary blotting in 20×SSC. The P20 cDNA probe was labelled with ^32P-dCTP using a random primer labelling system. […] Membranes were then washed, analysed using a phosphorimager and quantitated by MacBAS v2.5 software. For comparison, RNA samples from EDL muscle strips treated with or without 50 nM amylin were also analysed in parallel."}, "[3]": {"settings": "EDL strips from dexamethasone-treated rats, basal = no hormone"}, "[4]": {"settings": "cells overexpressing both P20 and GLUT4myc vs GLUT4myc alone, n=4"}, "[5]": {"settings": "EDL strips from non-diabetic control rats, mean ± SD"}},
  "note": "“And” between values parts separate entries of the source, which are not always exact repeats. Identical values can stand only once. Ends that are not written are not given here.",
  "data": [
    {"molecule": "C[C@@H]1C[C@H]2[C@@H]3CCC4=CC(=O)C=C[C@]4(C)[C@@]3(F)[C@@H](O)C[C@]2(C)[C@@]1(O)C(=O)CO", "note": "[Dexamethasone, dexamethasone]", "values": [
      {"measurement": "reduction in rates of insulin-stimulated glycogen synthesis", "setting": "skeletal muscle", "result": "over 95%"},
      {"measurement": "mean blood glucose concentration", "setting": "Male Wistar rats; 3.1 mg/kg/day i.p. for 7 days, 18 h fasted", "result": "10.8 ± 0.6", "unit": "mM"},
      {"measurement": "fasted basal plasma concentration of amylin", "setting": "Male Wistar rats; dexamethasone-treated rats", "result": "144±17", "unit": "pmol/1"},
      {"measurement": "fasted basal plasma concentration of insulin", "setting": "Male Wistar rats; dexamethasone-treated rats", "result": "789±94", "unit": "pmol/1"},
      {"measurement": "radioactivity of P20 isoform S1", "setting": "P20 [1]; [3]", "result": 439, "unit": "PSL"},
      {"measurement": "radioactivity of P20 isoform S2", "setting": "P20 [1]; [3]", "result": 102, "unit": "PSL"},
      {"measurement": "radioactivity of P20 isoform S3", "setting": "P20 [1]; [3]", "result": 98.6, "unit": "PSL"},
      {"measurement": "signals of both S2 and S3, fold higher than control rats", "setting": "P20 [1]; without hormone stimulation, dexamethasone 3.1 mg/kg/day i.p. for 7 days", "result": "about 5 fold"}
    ]},
    {"molecule": "Amylin: Rat amylin purchased from Bachem; hormone co-secreted with insulin from pancreatic islet β-cells (KCNTATCATQRLANFLVRSSNNLGPVLPPTNVGSNTY; ends and bridges not checked; cysteine pairing not given here; UniProt P12969 38-74, looked up)", "values": [
      {"measurement": "decrease of insulin-stimulated glucose uptake", "setting": "L6 myotubes; GLUT4myc alone, 50 nM insulin plus 50 nM amylin", "result": 28, "unit": "%"},
      {"measurement": "increase of the inhibitory effect of amylin by P20 overexpression", "setting": "L6 myotubes; [4]", "result": "24±2", "unit": "%"},
      {"measurement": "P20 mRNA level and protein abundance", "setting": "P20 [2]", "result": "not changed"},
      {"measurement": "decrease of insulin-induced phosphorylation of S1", "setting": "P20 [1]; 50 nM insulin plus 50 nM amylin vs 50 nM insulin alone, normal rats", "result": 49, "unit": "%"},
      {"measurement": "radioactivity of P20 isoform S1", "setting": "P20 [1]; [3]", "result": 181, "unit": "PSL"},
      {"measurement": "radioactivity of P20 isoform S2", "setting": "P20 [1]; [3]", "result": 280, "unit": "PSL"},
      {"measurement": "radioactivity of P20 isoform S3", "setting": "P20 [1]; [3]", "result": 208, "unit": "PSL"},
      {"measurement": "radioactivity of P20 isoform S1", "setting": "P20 [1]; [5]", "result": "191 ± 9", "unit": "PSL"},
      {"measurement": "radioactivity of P20 isoform S2", "setting": "P20 [1]; [5]", "result": "289 ± 20", "unit": "PSL"},
      {"measurement": "radioactivity of P20 isoform S3", "setting": "P20 [1]; [5]", "result": "226 ± 17", "unit": "PSL"}
    ]},
    {"molecule": "Insulin: Human insulin was Actrapid from Novo Nordisk", "values": [
      {"measurement": "decrease of insulin-stimulated glucose uptake by P20 overexpression", "setting": "L6 myotubes; [4]", "result": "41±3", "unit": "%"},
      {"measurement": "increase of 2-deoxyglucose uptake over basal level", "setting": "L6 myotubes; myotubes overexpressing GLUT4myc alone, 50 nM insulin", "result": "2.94±0.31", "unit": "fold"},
      {"measurement": "effect on phosphorylation of S2 and S3 induced by epinephrine and CGRP", "setting": "P20 [1]; 50 nM each, normal rats", "result": "no effect"},
      {"measurement": "decrease of amylin-evoked phosphorylation of S3", "setting": "P20 [1]; 50 nM insulin plus 50 nM amylin vs amylin alone, normal rats", "result": "73% and ~74%"},
      {"measurement": "radioactivity of P20 isoform S1", "setting": "P20 [1]; [3]", "result": 843, "unit": "PSL"},
      {"measurement": "radioactivity of P20 isoform S2", "setting": "P20 [1]; [3]", "result": 96.6, "unit": "PSL"},
      {"measurement": "radioactivity of P20 isoform S3", "setting": "P20 [1]; [3]", "result": 92, "unit": "PSL"},
      {"measurement": "radioactivity of P20 isoform S1", "setting": "P20 [1]; [5]", "result": "831 ± 40", "unit": "PSL"},
      {"measurement": "radioactivity of P20 isoform S2", "setting": "P20 [1]; [5]", "result": "20.3 ± 3.4", "unit": "PSL"},
      {"measurement": "radioactivity of P20 isoform S3", "setting": "P20 [1]; [5]", "result": "13.3 ± 1.3", "unit": "PSL"},
      {"measurement": "effect on amylin-evoked phosphorylation of S2 and S3", "setting": "P20 [1]; diabetic (dexamethasone-treated) rats", "result": "little affected"}
    ]}
  ]
}
